Measurements from patent publication EP4624457A1, “I[…] DERIVATIVES, I[…] NEURODEGENERATIVE DISEASES” (Centre National de la Recherche Scientifique, priority 2024, dated 2025).

What was measured:
[1] = molecular target: muscle (α1)2βγδ nAChR subtype (Torpedo marmorata, UniProt P02711+Q6S3H8+Q6S3H9); details: antagonistic activity, TEVC; value (95% CI); read-out: nAChR subtype (nM; 95% CI) α12β1γδ (Torpedo); cited from earlier work
[2] = molecular target: α4β2 nAChR (Homo sapiens, UniProt P17787+P43681); details: antagonistic activity, TEVC; value (95% CI); read-out: nAChR subtype (nM; 95% CI) α4β2 (human); cited from earlier work
α4β2 nAChR, sequence (P43681 29-627): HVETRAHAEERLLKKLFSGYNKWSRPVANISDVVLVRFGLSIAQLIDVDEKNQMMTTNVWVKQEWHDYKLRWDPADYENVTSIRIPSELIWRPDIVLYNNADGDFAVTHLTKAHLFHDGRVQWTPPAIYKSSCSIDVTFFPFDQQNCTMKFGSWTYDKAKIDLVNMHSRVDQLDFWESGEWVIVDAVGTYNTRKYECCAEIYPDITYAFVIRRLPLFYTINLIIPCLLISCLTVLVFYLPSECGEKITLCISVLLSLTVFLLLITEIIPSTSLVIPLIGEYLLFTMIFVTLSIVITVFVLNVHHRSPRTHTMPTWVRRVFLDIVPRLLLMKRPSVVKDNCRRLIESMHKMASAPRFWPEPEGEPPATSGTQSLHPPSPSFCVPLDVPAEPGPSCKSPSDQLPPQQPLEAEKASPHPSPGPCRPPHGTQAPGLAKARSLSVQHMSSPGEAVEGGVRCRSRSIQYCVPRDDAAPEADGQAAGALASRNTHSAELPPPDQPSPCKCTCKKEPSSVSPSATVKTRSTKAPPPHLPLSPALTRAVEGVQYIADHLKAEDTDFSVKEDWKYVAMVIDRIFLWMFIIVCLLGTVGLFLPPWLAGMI
α4β2 nAChR, sequence (P17787 26-502): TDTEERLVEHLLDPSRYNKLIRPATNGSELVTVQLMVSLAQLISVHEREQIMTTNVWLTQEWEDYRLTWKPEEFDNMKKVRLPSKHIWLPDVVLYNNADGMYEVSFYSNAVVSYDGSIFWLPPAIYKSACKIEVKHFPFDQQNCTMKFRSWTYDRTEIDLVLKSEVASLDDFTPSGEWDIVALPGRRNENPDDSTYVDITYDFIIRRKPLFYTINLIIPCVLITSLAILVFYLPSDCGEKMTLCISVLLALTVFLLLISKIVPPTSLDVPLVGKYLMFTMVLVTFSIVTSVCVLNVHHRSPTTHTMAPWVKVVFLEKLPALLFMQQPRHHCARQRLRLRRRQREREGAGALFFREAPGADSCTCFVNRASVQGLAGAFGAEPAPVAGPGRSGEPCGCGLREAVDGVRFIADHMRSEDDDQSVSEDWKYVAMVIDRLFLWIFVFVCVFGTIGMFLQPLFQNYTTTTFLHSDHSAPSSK

[3] = molecular target: T1, human α7 nAChR subtype (Homo sapiens, UniProt P36544); details: antagonistic activity, TEVC; value (95% CI); cited from earlier work
T1 construct: expressed in transfected cells; host or cells: Xenopus laevis oocytes injected with mRNA
T1 sequence (P36544 23-502): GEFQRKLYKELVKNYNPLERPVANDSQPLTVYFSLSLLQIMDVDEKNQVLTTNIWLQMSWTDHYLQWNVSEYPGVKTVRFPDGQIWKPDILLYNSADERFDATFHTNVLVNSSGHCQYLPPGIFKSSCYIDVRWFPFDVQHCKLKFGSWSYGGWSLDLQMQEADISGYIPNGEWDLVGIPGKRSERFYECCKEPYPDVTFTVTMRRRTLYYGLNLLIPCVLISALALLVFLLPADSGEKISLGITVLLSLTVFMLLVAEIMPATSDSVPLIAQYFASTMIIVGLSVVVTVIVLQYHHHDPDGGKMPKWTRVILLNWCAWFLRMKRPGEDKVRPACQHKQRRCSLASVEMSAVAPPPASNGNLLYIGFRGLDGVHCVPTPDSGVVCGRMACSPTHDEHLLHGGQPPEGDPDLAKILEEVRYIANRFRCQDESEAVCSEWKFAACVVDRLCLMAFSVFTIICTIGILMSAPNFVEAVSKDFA

[4] = molecular target: T1, human α7 nAChR subtype; assay: Two-electrode voltage clamp electrophysiology on Xenopus laevis oocytes expressing the α7 nAChR; format: cell-based
Text: The emerging cyclic imines toxins (CiTXs) of global distribution across coastal environments that are produced by dinoflagellates move fast up the human food chain through shellfish. The CiTX family includes 44 compounds: 7 gymnodimines (A-E, 12-methylgymnodimine and 16-desmethyl gymnodimine D), 16 spirolides (A-D, G-I, 13-desmethyl spirolide-C, 27-Hydroxy-13-desmethyl spirolide-C, 13,19-didesmethyl spirolide-C, 20-hydroxy-13,19-didesmethyl spirolide- C, 27-hydroxy-13,19-spirolide-C, 27-Oxo-13,19-didesmethyl spirolide-C, 13-desmethyl spirolide-D, 20-hydroxy-13,19-didesmethyl spirolide-D and 20-methyl spirolide-G), 8 pinnatoxins (A-H), 3 pteriatoxins (A-C), 6 prorocentrolides (A-B, 4- hydroxyprorocentrolide, 9,51-dihydro prorocentrolide, 30-sulfate prorocentrolide and 14-O-acetyl-4-hydroxyprorocentrolide), 1 spiroprorocentrimine, 2 portimines (A and B), and 1 kabirimine, (Aráoz et al. (2020) Cyclic imine toxins survey in coastal european shellfish samples: Bioaccumulation and mode of action of 28-O-palmitoyl ester of pinnatoxin-G. First report of portimine-A bioaccumulation. Harmful Algae, 98 [1]). The spiroimine moiety is the major feature characterizing cyclic imine toxins. The exception to this rule is prorocentrolides in which a hexahydroisoquinoline group replaces the spiroimine motif, (Torigoe et al. (1988) Prorocentrolide, a toxic nitrogenous macrocycle from a marine dinoflagellate, Prorocentrum-lima. Journal of the American Chemical Society, 110:7876-7877 [2]). Portimines display a 5-membered cyclic imine ring; gymnodimines, prorocentrolides, spiroprorocentrimines and kabirimine present a 6-membered imine ring, while spirolides, pinnatoxins and pteriatoxins display a 7-membered imine ring. Cyclic imine toxins are fast acting neurotoxins that, when administered intraperitoneally or by gavage at lethal doses, kill mice by respiratory arrest within minutes following blockade of neuromuscular nicotinic acetylcholine receptors (nAChR). The mode of action of several cyclic imines on nAChRs has been characterized, namely: gymnodimine-A, 13- desmethyl spirolide- C, 13,19-didesmethyl spirolide-C, 20-methyl spirolide-G, pinnatoxin-A, pinnatoxin-G, prorocentrolide-A and portimine, (Lamoise et al. (2017) Physico-chemical and functional characterization of portimine purified from Vulcanodinium rugosum strain IFR-VRU-01. In "Marine and Fresh-Water Harmful Algae". Proceedings of the 17th International Conference on Harmful Algae (Proença, L.A.O. and Hallegraeff, G. eds) pp. 126-129 ISSHA and IOC/UNESCO, Florianapolis; Molgó et al. (2017) Cyclic imine toxins from dinoflagellates: a growing family of potent antagonists of the nicotinic acetylcholine receptors. Journal of Neurochemistry, 142:41-51 [4]). They are potent antagonists of muscular and neuronal nicotinic acetylcholine receptors with pinnatoxin-A displaying picomolar affinities towards the α7 nicotinic acetylcholine receptor subtype (Aráoz et al. (2011) Total synthesis of pinnatoxins A and G and revision of the mode of action of pinnatoxin A. Journal of the American Chemical Society 133(27):10499-10511 [5]). In contrast, prorocentrolide and portimine show micromolar affinities towards the α7 nicotinic acetylcholine receptor subtype (Lamoise et al. (2017), Stivala et al. (2015) Synthesis and biology of cyclic imine toxins, an emerging class of potent, globally distributed marine toxins. Natural Product Reports, 32(3):411-435 [6]) (Table1). Table 1. Antagonistic activity of CiTX (Two-Electrodes Voltage Clamp electrophysiology).
• Figure 1 represents the chemical structure of ingrilimine according to compound (Illa) formula. • Figure 2 represents the cytotoxic activity of ingrilimine. A2780 ovarian and HT29 colorectal carcinoma cells were grown in RPMI 1640 supplemented with 10% fetal calf serum (FCS) and 1% glutamine. […]

[5] = tested on: P338 leukemia cell line; details: mouse P338 leukemia cell line; cited from earlier work
[6] = tested on: 3T3, L929, 4T1 and Caco-2 cells; details: normal cell lines 3T3 and L929, tumor cell line 4T1, Caco-2 cells; cited from earlier work
[7] = tested on: cancer cell lines; details: literature (Tang et al. 2023; Fribley et al. 2019); cited from earlier work

muscle (α1)2βγδ nAChR subtype, sequence (P02711 25-461): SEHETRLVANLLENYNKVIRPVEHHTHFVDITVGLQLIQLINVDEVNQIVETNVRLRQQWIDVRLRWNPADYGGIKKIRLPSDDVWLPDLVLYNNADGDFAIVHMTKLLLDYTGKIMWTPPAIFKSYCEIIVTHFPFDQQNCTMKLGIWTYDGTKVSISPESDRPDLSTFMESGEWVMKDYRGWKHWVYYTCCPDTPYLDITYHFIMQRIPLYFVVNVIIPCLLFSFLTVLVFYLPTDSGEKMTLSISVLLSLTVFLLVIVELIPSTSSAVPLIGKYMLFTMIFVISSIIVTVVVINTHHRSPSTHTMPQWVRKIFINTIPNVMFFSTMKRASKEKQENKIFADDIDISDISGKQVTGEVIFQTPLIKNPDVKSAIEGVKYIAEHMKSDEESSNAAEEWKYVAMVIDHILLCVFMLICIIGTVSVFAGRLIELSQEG
muscle (α1)2βγδ nAChR subtype, sequence (Q6S3H9 entry or part of it): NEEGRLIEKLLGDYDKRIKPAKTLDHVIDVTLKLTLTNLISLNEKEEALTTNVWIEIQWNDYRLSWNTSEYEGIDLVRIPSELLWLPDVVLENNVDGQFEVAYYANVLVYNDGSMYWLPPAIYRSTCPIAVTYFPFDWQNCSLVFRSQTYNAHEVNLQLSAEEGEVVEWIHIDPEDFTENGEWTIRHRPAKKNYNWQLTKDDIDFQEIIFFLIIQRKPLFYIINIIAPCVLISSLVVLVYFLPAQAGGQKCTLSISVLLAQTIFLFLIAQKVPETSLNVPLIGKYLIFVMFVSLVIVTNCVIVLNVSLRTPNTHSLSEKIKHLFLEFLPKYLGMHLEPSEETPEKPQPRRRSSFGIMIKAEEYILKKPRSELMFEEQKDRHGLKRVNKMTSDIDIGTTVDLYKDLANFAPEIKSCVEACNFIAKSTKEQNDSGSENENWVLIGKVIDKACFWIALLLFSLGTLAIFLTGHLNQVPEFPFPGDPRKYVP
muscle (α1)2βγδ nAChR subtype, sequence (Q6S3H8 entry or part of it): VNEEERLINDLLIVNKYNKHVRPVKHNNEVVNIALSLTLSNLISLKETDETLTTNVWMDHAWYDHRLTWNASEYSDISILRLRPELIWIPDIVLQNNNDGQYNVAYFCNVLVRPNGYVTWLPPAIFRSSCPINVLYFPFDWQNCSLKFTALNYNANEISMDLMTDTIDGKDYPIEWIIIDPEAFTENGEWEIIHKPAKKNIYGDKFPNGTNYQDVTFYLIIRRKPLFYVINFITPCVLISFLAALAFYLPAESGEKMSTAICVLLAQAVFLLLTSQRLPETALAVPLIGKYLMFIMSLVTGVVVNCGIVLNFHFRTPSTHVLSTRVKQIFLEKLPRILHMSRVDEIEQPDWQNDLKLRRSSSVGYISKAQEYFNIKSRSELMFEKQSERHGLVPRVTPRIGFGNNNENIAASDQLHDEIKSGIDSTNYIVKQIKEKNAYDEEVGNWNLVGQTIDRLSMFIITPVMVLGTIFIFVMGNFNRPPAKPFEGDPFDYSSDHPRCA
muscle (α1)2βγδ nAChR subtype, sequence (Q6S3I0 entry or part of it, further chain): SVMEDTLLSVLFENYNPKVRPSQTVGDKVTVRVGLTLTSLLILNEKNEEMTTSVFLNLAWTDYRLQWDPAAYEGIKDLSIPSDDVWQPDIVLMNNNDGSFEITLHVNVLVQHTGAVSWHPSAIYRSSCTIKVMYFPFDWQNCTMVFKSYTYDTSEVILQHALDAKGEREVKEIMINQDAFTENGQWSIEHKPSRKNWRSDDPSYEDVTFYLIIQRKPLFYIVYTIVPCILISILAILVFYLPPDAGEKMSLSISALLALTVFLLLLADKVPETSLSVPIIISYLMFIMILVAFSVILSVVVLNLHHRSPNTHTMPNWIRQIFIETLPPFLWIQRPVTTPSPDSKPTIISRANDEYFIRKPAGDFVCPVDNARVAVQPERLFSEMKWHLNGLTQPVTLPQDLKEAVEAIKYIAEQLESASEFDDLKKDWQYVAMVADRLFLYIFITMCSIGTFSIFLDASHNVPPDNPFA

| Molecule | IC50 [1] | IC50 [2] | IC50 [3] | other results |
| --- | --- | --- | --- | --- |
| 20-methyl spirolide-G | 0.36 nM | 2.1 nM | 0.48 nM | – |
| 28-O-palmitoyl ester of pinnatoxin-G [Palmitate PnTX-G] | 0.97 nM | – | – | – |
| C=C1CCCC2=NCC(C)C(C)CC23CCC(C2C=C(C)C(=O)O2)=C(C)C3/C=C(\C)C(O)CC2CCC3(CCC4(OC(CCC4O)C1)O3)O2 (stereo not shown) [13,19-didesmethyl spirolide-C] | 0.2 nM | 6.26 nM | 0.25 nM | – |
| C=C1CCCC2=NCC(C)C(C)CC23CCC(C2C=C(C)C(=O)O2)=C(C)C3/C=C(/C)C(O)CC2CCC3(CCC4(OC(CCC4(C)O)C1)O3)O2 (stereo not shown) [13-desmethyl spirolide-C] | 0.51 nM | 3.9 nM | 0.18 nM | – |
| C=C1CCCC2=NC[C@H](C)[C@@H](C)C[C@@]23CCC(C(=O)O)=C[C@@H]3[C@@H]2O[C@]3(C[C@H]4CCC[C@@]5(CC[C@@]6(O[C@@H](CC[C@@]6(C)O)C1)O5)O4)C[C@@H](C)[C@@H](O)[C@H]2O3 [Pinnatoxine-A] | 5.53 nM | 30.4 nM | 0.107 nM | antagonistic activity against human α7 nAChR, times more potent than towards muscle-type (α1)2β1γδ nAChR ([4]; selectivity α7 vs muscle-type): 50 times; antagonistic activity against human α7 nAChR, times more potent than against the human neuronal α4β2 nAChR subtype ([4]; selectivity α7 vs α4β2): ~ 300 times |
| C=CC1=C[C@@H]2[C@@H]3O[C@]4(C[C@H]5CCC[C@@]6(CC[C@@]7(O[C@@H](CC[C@@]7(C)O)CC(=C)CCCC7=NC[C@H](C)[C@@H](C)C[C@@]72CC1)O6)O5)C[C@@H](C)[C@@H](O)[C@H]3O4 [Pinnatoxine-G] | 3.82 nM | 4.9 nM | 5.06 nM | – |
| C=C1CCCC2OC(CC3=CC4/C(C)=C/CC(C)CC(/C=C(\C)C(O)C5CC(O)C(O)C(CCC(O)/C=C/C(C)=C/CCC6=NCCC(C3)C64C)O5)OC(=O)CC3CC(O)C(O3)C(O)C1)CC(O)C2O (stereo not shown) [Prorocentrolide] | 186 nM | – | 1660 nM | – |
| C=C1CCCC2=NC[C@H](C)[C@@H](C)C[C@@]23CCC([C@@H]2CCC(=O)O2)=C[C@@H]3[C@@H]2O[C@@]3(C[C@@H](C)C[C@H]2O3)C[C@@H]2O[C@]3(CC[C@@]4(O[C@@H](CC[C@@]4(C)O)C1)O3)C[C@H](C)[C@@H]2O [pinnatoxin-F] | – | – | – | IC50 [5]: > 1000 nM |
| Gymnodimine-A | 2.8 nM | 0.9 nM | – | cytotoxic, concentration region [6]: micromolar region |
| portimine B | – | – | – | cytotoxic activities, order of magnitude [7]: ~10^-7 M |
